Reference: PubChem BioAssay (NCI)
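Assay format: 96-well plates, 48-hour exposure. GI50: concentration for 50% inhibition of growth. At the TGI there is no net growth.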

How the values were obtained:
Experiment in all cases: NCI anticancer screen, dose series, 48 h
DU-145 prostate = test system: DU-145 prostate
HOP-62 NSCLC = test system: HOP-62 NSCLC
LOX IMVI melanoma = test system: LOX IMVI melanoma
M14 melanoma = test system: M14 melanoma
MCF7 breast = test system: MCF7 breast
NCI-H522 lung = test system: NCI-H522 lung
SF-295 CNS = test system: SF-295 CNS
A498 renal = test system: A498 renal
CCRF-CEM leukemia = test system: CCRF-CEM leukemia
RPMI-8226 leukemia = test system: RPMI-8226 leukemia

SMILES	GI50 (DU-145 prostate) [µM]	TGI (DU-145 prostate) [µM]	GI50 (HOP-62 NSCLC) [µM]	TGI (HOP-62 NSCLC) [µM]	GI50 (LOX IMVI melanoma) [µM]	TGI (LOX IMVI melanoma) [µM]	GI50 (M14 melanoma) [µM]	TGI (M14 melanoma) [µM]	GI50 (MCF7 breast) [µM]	TGI (MCF7 breast) [µM]	GI50 (NCI-H522 lung) [µM]	TGI (NCI-H522 lung) [µM]	GI50 (SF-295 CNS) [µM]	TGI (SF-295 CNS) [µM]	TGI (A498 renal) [µM]	TGI (CCRF-CEM leukemia) [µM]	TGI (RPMI-8226 leukemia) [µM]	GI50 (A498 renal) [µM]	GI50 (CCRF-CEM leukemia) [µM]	GI50 (RPMI-8226 leukemia) [µM]
COc1cc2c3c(n(CCCNCCNCCCN)c(=O)c2cc1OC)-c1cc2c(cc1C3=O)OCO2	4.6	17	2.88	15.6	1.08	3.75	3	12.5	2.14	> 100	0.575	2.86	2.79	17.4	–	–	–	–	–	–
CCOC(=O)c1cnc2cc3cccccc3n2c1=O	–	–	–	> 100	–	> 100	–	> 100	–	–	–	–	–	> 100	> 100	> 100	> 100	–	–	–
COc1cc(OC)cc(-c2cncn2-c2ccc(-c3nc4cc(OC)cc(OC)c4s3)cc2)c1	> 100	> 100	6.65	34.5	5.48	> 100	–	–	3.82	> 100	2.49	> 100	2.4	43.1	> 100	–	–	3.15	–	–
NC(=O)NCCSC1CCCCC1O (stereo not given)	–	> 100	–	> 100	–	> 100	–	> 100	–	> 100	–	> 100	–	> 100	> 100	–	> 100	–	–	–
O=CN1CCN(C=S)CC1	–	–	–	> 100	–	> 100	–	> 100	–	–	–	> 100	–	> 100	> 100	> 100	> 100	–	–	–
CC1CC2(CCC1OCc1ccccc1)OCCO2 (stereo not given)	–	–	–	> 100	–	> 100	–	> 100	–	–	–	> 100	–	> 100	> 100	> 100	> 100	–	–	–
Cc1cc2c(cc1Br)C1(C)CCC(C)C1(C)O2 (stereo not given)	–	–	–	> 100	–	35.4	–	> 100	–	–	–	–	–	54.6	> 100	56.1	33.2	–	–	–
C=CCN(CC=C)CC(C(C)=O)C(c1ccccc1)c1c(O)c2ccccc2oc1=O (stereo not given)	–	–	–	> 100	–	> 100	–	> 100	–	–	–	> 100	–	95.8	> 100	> 100	> 100	–	–	–
c1cncc(CNc2ncn[nH]2)c1	–	> 100	–	> 100	–	> 100	–	> 100	–	> 100	–	> 100	–	> 100	> 100	–	> 100	–	–	–
OCc1ccc(Oc2c3ccccc3nc3occc23)cc1	33.6	> 100	30.4	> 100	–	–	23.8	57.6	16.6	39.5	> 100	> 100	15.5	35.9	–	> 100	65.5	–	31.3	20.7
Cc1c(O)c(=O)ccn1CCO	–	–	–	> 100	–	> 100	–	> 100	–	–	–	> 100	–	> 100	> 100	> 100	> 100	–	–	–
NC1=NC(c2ccc(F)cc2)C2=C(N1)c1ccc3ccccc3c1OCC2 (stereo not given)	> 100	> 100	23.5	> 100	> 100	> 100	> 100	> 100	4.69	> 100	> 100	> 100	3.47	48.4	> 100	–	–	10.8	–	–
Clc1cc(Cl)cc(Nc2nc3ccccc3nc2-c2cccs2)c1	–	–	–	> 100	–	> 100	–	–	–	–	–	–	–	45.8	–	> 100	> 100	–	–	–
Cc1ccc(F)cc1NC(=O)c1cc(Cl)ccc1Nc1ccccc1	> 100	> 100	79	> 100	> 100	> 100	–	–	> 100	> 100	> 100	> 100	56	> 100	–	> 100	> 100	–	20.2	51.2
CO/N=C(/COc1c(-c2ccccc2)oc2ccccc2c1=O)c1ccc(F)cc1	> 100	> 100	27.3	67.8	69.9	> 100	30.6	> 100	–	–	36.4	> 100	41.1	> 100	> 100	67.9	> 100	61.2	12.6	72.1
COc1ccc(-n2c3c(c4c(CN(C)C)c(O)c(C)cc42)CCc2ccccc2C3=O)cc1	21.4	> 100	40.8	> 100	17.1	45.2	26.9	97	> 100	> 100	13.4	50.7	35.6	> 100	> 100	–	47	60	–	15.5
COc1cc(/C=C2\C(=O)Nc3ccccc32)cc(OC)c1OC	–	–	22.2	62.3	16.5	> 100	21.2	79.5	19.9	> 100	14.1	90.4	28.3	> 100	> 100	> 100	61.5	27.4	8.82	12
COc1ccccc1NC(=O)C1=C(C)NC(C)=C(C(=O)Nc2ccccc2OC)C1c1cccc2c1OCO2	–	–	–	> 100	–	> 100	–	> 100	–	–	–	–	–	> 100	> 100	> 100	> 100	–	–	–
NC(=O)c1c2c(cc3c(=O)c4ccccc4[nH]c13)CCCC2	–	–	–	> 100	–	> 100	–	> 100	–	–	–	> 100	–	> 100	> 100	98.7	> 78.7	–	–	–
CCOC(=O)[C@H]1Nc2ccc(Cl)cc2[C@H]2c3ccccc3O[C@H]21	–	–	–	> 100	–	> 100	–	> 100	–	–	–	> 100	–	> 100	–	–	> 100	–	–	–
